Key:
MMP-9 [1] = test: Substrate phage display with NGS: relative probability (RP) of P3-P1' tetramer clusters; format: biochemical, human; conditions: MMP9; RP of the substrate's P3-P1' tetramer, substrate phage display with NGS;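 also: ratio of tetramer probability after protease selection to that in naive phage library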
MMP-2 = target: T1, MMP-2 (Homo sapiens, UniProt P08253); test: K(obs) of individual phage substrates (set of 1369); format: biochemical; conditions: MMP2; individual phage substrate from the set of 1369 peptides; hyphen in the sequence marks the cleavage position
T1 sequence (P08253 110-660): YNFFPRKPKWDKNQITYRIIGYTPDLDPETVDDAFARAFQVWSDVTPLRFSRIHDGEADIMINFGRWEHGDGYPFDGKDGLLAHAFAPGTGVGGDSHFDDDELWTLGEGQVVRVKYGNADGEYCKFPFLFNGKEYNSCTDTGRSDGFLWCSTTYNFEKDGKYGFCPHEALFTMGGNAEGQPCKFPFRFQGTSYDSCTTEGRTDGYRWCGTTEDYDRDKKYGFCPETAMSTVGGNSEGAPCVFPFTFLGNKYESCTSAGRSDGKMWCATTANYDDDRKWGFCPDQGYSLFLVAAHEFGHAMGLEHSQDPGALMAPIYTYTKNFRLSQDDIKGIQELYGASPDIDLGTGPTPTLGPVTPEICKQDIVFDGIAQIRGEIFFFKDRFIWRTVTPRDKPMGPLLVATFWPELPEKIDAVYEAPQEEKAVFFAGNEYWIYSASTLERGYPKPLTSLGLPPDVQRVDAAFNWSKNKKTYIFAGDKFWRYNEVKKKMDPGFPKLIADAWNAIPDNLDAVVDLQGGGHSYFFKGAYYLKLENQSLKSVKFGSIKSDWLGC

MMP-9 [2] = target: MMP-9 (Homo sapiens, UniProt P14780); test: as above; format: biochemical; conditions: MMP9; individual phage substrate of the set of 1369 peptides; dash in sequence marks cleavage position
Sequence of MMP-9 (Homo sapiens, UniProt P14780) (P14780 94-707): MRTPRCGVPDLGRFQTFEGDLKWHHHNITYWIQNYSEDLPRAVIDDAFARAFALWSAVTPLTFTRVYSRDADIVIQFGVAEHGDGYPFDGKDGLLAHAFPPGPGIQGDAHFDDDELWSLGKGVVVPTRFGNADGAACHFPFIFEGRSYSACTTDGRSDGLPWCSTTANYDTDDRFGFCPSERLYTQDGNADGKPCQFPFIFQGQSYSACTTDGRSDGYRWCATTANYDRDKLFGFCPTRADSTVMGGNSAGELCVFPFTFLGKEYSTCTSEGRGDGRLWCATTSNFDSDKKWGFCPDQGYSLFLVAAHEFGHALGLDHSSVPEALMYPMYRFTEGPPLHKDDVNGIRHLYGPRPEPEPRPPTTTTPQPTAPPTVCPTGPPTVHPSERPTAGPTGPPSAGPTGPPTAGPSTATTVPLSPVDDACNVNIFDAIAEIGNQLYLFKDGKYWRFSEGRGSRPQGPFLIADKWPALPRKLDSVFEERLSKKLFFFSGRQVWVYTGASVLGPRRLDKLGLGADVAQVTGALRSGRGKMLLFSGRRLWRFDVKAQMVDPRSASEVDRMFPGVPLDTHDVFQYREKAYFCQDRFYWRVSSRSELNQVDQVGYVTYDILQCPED

| Kobs (MMP-2) | Kobs (MMP-9 [2]) | Substance | relative probability (RP) (MMP-9 [1]) |
| --- | --- | --- | --- |
| 3637.04 M⁻¹ s⁻¹ | 12792.1 M⁻¹ s⁻¹ | LKVMN-YTASG | 29.3662 |
| 7386.83 M⁻¹ s⁻¹ | 12792.1 M⁻¹ s⁻¹ | PTPRS-YTASG | 44.546 |
| 9740.44 M⁻¹ s⁻¹ | 4613.14 M⁻¹ s⁻¹ | GGPST-LTASG | 36.3405 |
| 9740.44 M⁻¹ s⁻¹ | 5889.62 M⁻¹ s⁻¹ | SDVRF-LTASG | 26.3541 |
| 12792.1 M⁻¹ s⁻¹ | 6688.74 M⁻¹ s⁻¹ | ESIRG-LTASG | 41.2198 |
| 12792.1 M⁻¹ s⁻¹ | 4205.91 M⁻¹ s⁻¹ | SGVAW-LKHTA | 35.286 |
| 8941.32 M⁻¹ s⁻¹ | 6131.32 M⁻¹ s⁻¹ | QMPLQ-ITASG | 44.6329 |
| 8321.48 M⁻¹ s⁻¹ | 9740.44 M⁻¹ s⁻¹ | GTPIE-LYTAS | 35.3641 |
| 4922.1 M⁻¹ s⁻¹ | 551.253 M⁻¹ s⁻¹ | WAINA-LTASG | 1.369 |
| 12792.1 M⁻¹ s⁻¹ | 10866.7 M⁻¹ s⁻¹ | QVPRR-LTASG | 2.666 |
| 5889.62 M⁻¹ s⁻¹ | 9740.44 M⁻¹ s⁻¹ | GFVFE-LRTAS | 20.3412 |
| 12792.1 M⁻¹ s⁻¹ | 0 M⁻¹ s⁻¹ | GHPSP-FTASG | 37.3217 |
| 2409.72 M⁻¹ s⁻¹ | 10866.7 M⁻¹ s⁻¹ | TNVFW-YTASG | 29.291 |
| 12792.1 M⁻¹ s⁻¹ | 10866.7 M⁻¹ s⁻¹ | CAPTA-LTASG | 40.9775 |
| 5461.43 M⁻¹ s⁻¹ | 12792.1 M⁻¹ s⁻¹ | NGPYN-LTASG | 49.1716 |
| 12792.1 M⁻¹ s⁻¹ | 0 M⁻¹ s⁻¹ | ATLAA-LTASG | 6.32 |
| 12792.1 M⁻¹ s⁻¹ | 12792.1 M⁻¹ s⁻¹ | NAPNA-LTASG | 41.7392 |
| 8941.32 M⁻¹ s⁻¹ | 912.511 M⁻¹ s⁻¹ | VDVSF-LTASG | 1.252 |
| 12792.1 M⁻¹ s⁻¹ | 9740.44 M⁻¹ s⁻¹ | NSPSD-LTASG | 38.1321 |

| Kobs (MMP-2) | Kobs (MMP-9 [2]) | Substance | relative probability (RP) (MMP-9 [1]) |
| --- | --- | --- | --- |
| 10866.7 M⁻¹ s⁻¹ | 12792.1 M⁻¹ s⁻¹ | GMPLG-LRTAS | 48.9856 |
| 12792.1 M⁻¹ s⁻¹ | 10866.7 M⁻¹ s⁻¹ | LPPLG-FTASG | 44.5202 |
| 12792.1 M⁻¹ s⁻¹ | 7015.91 M⁻¹ s⁻¹ | GNPAQ-MRTAS | 38.7952 |
| 4082.43 M⁻¹ s⁻¹ | 5461.43 M⁻¹ s⁻¹ | LVVRA-HTASG | 18.814 |
| 7015.91 M⁻¹ s⁻¹ | 517.582 M⁻¹ s⁻¹ | GMPGR-LSTAS | 29.3451 |
| 10866.7 M⁻¹ s⁻¹ | 84.609 M⁻¹ s⁻¹ | KSISN-WTASG | 0.06259 |
| 12792.1 M⁻¹ s⁻¹ | 12792.1 M⁻¹ s⁻¹ | QRPMD-LTASG | 44.1549 |
| 292.668 M⁻¹ s⁻¹ | 2687.73 M⁻¹ s⁻¹ | SGPFS-NRATA | 1.097 |
| 261.974 M⁻¹ s⁻¹ | 3637.04 M⁻¹ s⁻¹ | SGVRS-ITWTA | 25.6748 |
| 9740.44 M⁻¹ s⁻¹ | 12792.1 M⁻¹ s⁻¹ | SGPKG-MRMTA | 48.8441 |
| 799.117 M⁻¹ s⁻¹ | 1373.05 M⁻¹ s⁻¹ | GSGRG-LWSET | 11.4523 |
| 4082.43 M⁻¹ s⁻¹ | 0 M⁻¹ s⁻¹ | QRVAA-VTASG | 0.4709 |
| 6396.07 M⁻¹ s⁻¹ | 12792.1 M⁻¹ s⁻¹ | GVPRA-VTASG | 40.8515 |
| 12792.1 M⁻¹ s⁻¹ | 12792.1 M⁻¹ s⁻¹ | GLPAA-LTTAS | 47.6262 |
| 4613.14 M⁻¹ s⁻¹ | 10866.7 M⁻¹ s⁻¹ | KDPKF-LTASG | 42.7484 |
| 4922.1 M⁻¹ s⁻¹ | 12792.1 M⁻¹ s⁻¹ | ILVWN-YTASG | 30.7196 |
| 12792.1 M⁻¹ s⁻¹ | 12792.1 M⁻¹ s⁻¹ | SSPLN-YTASG | 47.778 |
| 5889.62 M⁻¹ s⁻¹ | 5090.5 M⁻¹ s⁻¹ | SGPRS-WTNTA | 40.7744 |
| 12792.1 M⁻¹ s⁻¹ | 12792.1 M⁻¹ s⁻¹ | SQPMA-YTASG | 49.7335 |

| Kobs (MMP-2) | Kobs (MMP-9 [2]) | Substance | relative probability (RP) (MMP-9 [1]) |
| --- | --- | --- | --- |
| 1071.29 M⁻¹ s⁻¹ | 6396.07 M⁻¹ s⁻¹ | TGPKL-ITASG | 25.2703 |
| 12792.1 M⁻¹ s⁻¹ | 8941.32 M⁻¹ s⁻¹ | MWVLS-LTASG | 27.5596 |
| 12792.1 M⁻¹ s⁻¹ | 12792.1 M⁻¹ s⁻¹ | RRPVA-YTASG | 47.2844 |
| 2996.69 M⁻¹ s⁻¹ | 12792.1 M⁻¹ s⁻¹ | SLPLL-LTASG | 32.5638 |
| 8321.48 M⁻¹ s⁻¹ | 3253.29 M⁻¹ s⁻¹ | PCPTG-LTASG | 39.8897 |
| 12792.1 M⁻¹ s⁻¹ | 9740.44 M⁻¹ s⁻¹ | WDIRS-LTASG | 30.8005 |
| 12792.1 M⁻¹ s⁻¹ | 12792.1 M⁻¹ s⁻¹ | SGPRA-VSATA | 40.8515 |
| 231.616 M⁻¹ s⁻¹ | 2409.72 M⁻¹ s⁻¹ | WTPRG-NTASG | 15.8425 |
| 12792.1 M⁻¹ s⁻¹ | 0 M⁻¹ s⁻¹ | GSHAA-LRTAS | 0.9522 |
| 7386.83 M⁻¹ s⁻¹ | 56.119 M⁻¹ s⁻¹ | HKIAL-LTASG | 0.8483 |
| 12792.1 M⁻¹ s⁻¹ | 12792.1 M⁻¹ s⁻¹ | MSPRK-FTASG | 2.647 |
| 2916.17 M⁻¹ s⁻¹ | 7015.91 M⁻¹ s⁻¹ | SGVLS-LQSTA | 27.5596 |
| 12792.1 M⁻¹ s⁻¹ | 9740.44 M⁻¹ s⁻¹ | IMHRA-LTASG | 18.7073 |
| 12792.1 M⁻¹ s⁻¹ | 12792.1 M⁻¹ s⁻¹ | GYPRG-LGTAS | 47.3825 |
| 8321.48 M⁻¹ s⁻¹ | 386.839 M⁻¹ s⁻¹ | VLFGA-LTASG | 2.95 |
| 12792.1 M⁻¹ s⁻¹ | 7815.03 M⁻¹ s⁻¹ | GFPRA-FRTAS | 44.1248 |
| 12792.1 M⁻¹ s⁻¹ | 6688.74 M⁻¹ s⁻¹ | RHPSH-FTASG | 26.7767 |
| 12792.1 M⁻¹ s⁻¹ | 12792.1 M⁻¹ s⁻¹ | VGPAF-LTASG | 38.454 |
| 2038.8 M⁻¹ s⁻¹ | 9740.44 M⁻¹ s⁻¹ | RVPVP-MTASG | 46.3561 |
